Results from patent US8188308B2 (Kyowa Hakko Bio Co., Ltd., priority 2006, dated 2012).
Where “and” joins values, the source holds several entries; their conditions need not be identical. Identical values can stand only once.

Experiments:
[1] = glutathione crystals; volume median diameter
Procedure: (2) Average Particle Diameter
This is synonymous with volume median diameter, and it was measured using a laser diffraction and scattering particle diameter analyzer, the LMS-24 SK Laser Micron Sizer (Seishin Enterprise Co. Ltd.) and expressed as a cumulative 50% volume particle diameter.

[2] = glutathione crystals
Procedure: The crystals were observed and photographed using a VH-8000 digital microscope (Keyence Corporation). The width of approximately 300 crystals was measured and calculations performed.

[3] = 12 g crystals in 200 ml ionized water, 37° C., 120 rpm, time to complete dissolution
Procedure: 12 g of each of the crystals was put in to 200 ml of the ionized water maintained at a temperature of 37° C., and the time from injection to complete dissolution of the crystals when agitated at 120 rpm was measured.

SMILES	Average particle diameter [1] [μm]	Average width [2]	Dissolution time [3] [s]
N[C@@H](CCC(=O)N[C@@H](CS)C(=O)NCC(=O)O)C(=O)O [Commercial product A]	9	3 μm	124
N[C@@H](CCC(=O)N[C@@H](CS)C(=O)NCC(=O)O)C(=O)O [Example 1, gamma-L-glutamyl-L-cysteinyl glycine]	52	25 μm	–
N[C@@H](CCC(=O)N[C@@H](CS)C(=O)NCC(=O)O)C(=O)O [Example 2, gamma-L-glutamyl-L-cysteinyl glycine]	–	14 μm and 7 μm	–
N[C@@H](CCC(=O)N[C@@H](CS)C(=O)NCC(=O)O)C(=O)O [commercial product B]	–	3 μm	–
N[C@@H](CCC(=O)N[C@@H](CS)C(=O)NCC(=O)O)C(=O)O [commercial product C]	–	3 μm	–
